In one experiment the test system is HeLa cells. Format: cell-based, human. Conditions: 24 h. On the procedure: (§1) Cell viability assays were performed against HeLa and A549 cells. Cells were seeded in Corning 96-well microplates at 2 × 10^3 cells/well and 5 × 10^3 cells/well and incubated for 24 h at 37 °C. Then, cells were treated with peptides dissolved in Dulbecco’s Modified Eagle’s Medium for 24 h; peptide concentration range 0.1–100 µM. The peptide solution was then removed, and fresh medium was added to the cells. Finally, 50 µL of activated-XTT solution was added and incubated for 4 h at 37 °C. A PowerWave X reader (BioTek, Winooski, VT, USA) was used to measure absorbance at 450 nm. Cell viability was calculated through the ratio of the absorbance of peptide-treated cells over the absorbance of untreated cells. Triplicates were run for each experiment.

The test system of another experiment is A549 cells. Format: cell-based, human. Conditions: for IC50: 24 h; for A549 IC50: 24 h treatment, XTT, value in brackets. On the procedure:
as §1
(In general: Tetrazolium dyes change colour on reduction, which living cells bring about.)

Experiment [1] concerns P. aeruginosa R2 and 121110 strains. The experiment in a line: Transmission electron microscopy of treated bacteria. The experiment is classed as cell-based, Pseudomonas aeruginosa. Conditions: 4 h incubation at 4× MIC. On the procedure: Bacterial strains P. aeruginosa R2 and 121110 under treatment with CAP-18, CAP-18_31, D-CAP-18, and D-CAP-18_31 were chosen for TEM visualization. A total of 5 mL AST broth cultures were prepared in 50 mL Falcon tubes and inoculated with single colonies grown in Columbia Agar incubated at 37 °C. Liquid cultures were then diluted 1:100 in fresh AST broth and incubated at 37 °C until OD 0.6 was reached. Cultures were then centrifuged 10 min at 3000× g at 4 °C, and supernatant was discarded and replaced by fresh AST. […] Results from TKC assays were used as a guidance to choose peptide concentrations and incubation times for TEM sample visualization. After incubation, tubes were centrifuged thrice for 15′ at 5000× g and 4 °C, substituting supernatant after each centrifugation by adding 10 mL PBS 1× to the pellet and resuspending. Supernatant was discarded after the final centrifugation step. Pellet was fixed by adding 1 mL of 2.5% glutaraldehyde + 2% paraformaldehyde in PBS 0.1 M at pH 7.4, and centrifuged 10′ at 5000× g and 4 °C. Supernatant was discarded 30 min after centrifugation and pellet was washed twice with 1 mL of fresh fixing solution. Samples were stored 4 °C O/N and processed by the Electronic Microscopy Unit, Medicine Faculty, University of Barcelona. University of Barcelona Microscopy Facilities.

Experiment [2] relates to P. aeruginosa ATCC 121110. In words: Time-kill kinetic assay. The experiment is classed as cell-based, Pseudomonas aeruginosa. On the procedure:
(§2) Timepoints to withdraw aliquots of liquid cultures for each peptide, concentration, and strain were established at the following: 0, 2, 4, 8, and 24 h after inoculation. McFarland 0.5 solutions (~1.5 × 10^8 CFU/mL) were prepared from single-picked colonies grown O/N at 37 °C in Columbia Agar plates. Thirteen mL Falcon tubes were used to prepare solutions containing 5 mL of total volume by adding the following: 1 mL of peptide solution at 5 times chosen assay concentration to test, 3.75 mL AST, and 0.25 mL of a 1:10 McFarland dilution in AST. Positive controls contained 4.75 mL AST and 0.25 mL of strain inoculum diluted in AST; negative controls only contained 5 mL of AST. After adding the inoculum into each tube and vortexing, a 150 µL aliquot was taken from each tube at timepoint 0 h. All tubes were then placed in a 37 °C shaker-incubator at 180 rpm. Likewise, for timepoints 2, 4, 8, and 24 h, a 150 µL aliquot was withdrawn at each time for each tube. Each of these aliquots was serially diluted in 1:10 ratio in PBS 1× and 20 µL of the serial dilutions were spread on LB agar plates and incubated O/N at 37 °C. […] grown in LB agar plates were counted. Bacterial concentration (CFU/mL) for each strain, timepoint, and peptide concentration tested was calculated. Bactericidal effect was considered when there was a decrease of at least 3 in log10 (CFU/mL) for each peptide concentration at a given timepoint against each bacterial strain studied. A detection limit of 50 CFU/mL was established, corresponding to 1.70 log10 (CFU/mL), as 20 µL of each direct aliquot sample was spread in LB agar plates. Three replicates were run per peptide and strain.

The subject of the next experiment is P. aeruginosa R2. In words: Time-kill kinetic assay. The experiment is classed as cell-based, Pseudomonas aeruginosa. On the procedure: as §2
The test system of experiment [3] is P. aeruginosa Strain ATCC 121110. The experiment is classed as cell-based, Pseudomonas aeruginosa. An outline of the steps:
(§3)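 Broth microdilution MIC based on CLSI guidance, peptides tested in AST broth in polypropylene round-bottom plates to limit peptide adsorption; colistin tested in cation-adjusted Mueller-Hinton broth per CLSI-EUCAST polymyxin recommendations with E. coli 13846 (mcr-1) and P. aeruginosa ATCC 27853 as QC. Three biological and technical replicates.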

For experiment [4], the system named is P. aeruginosa strain panel. Format: cell-based, Pseudomonas aeruginosa. The gist of the method: as §3
Experiment [5] relates to P. aeruginosa Strain 121007. Format: cell-based, Pseudomonas aeruginosa. An outline of the steps:
as §3

Setting [6] is: Strain ATCC 121110, value in brackets.
The mark [7] stands for this setting: panel of 15 P. aeruginosa strains.
The mark [8] stands for this setting: panel of 15 P. aeruginosa strains, value in brackets.
[9] abbreviates: Strain 121007, value in brackets.

Read-outs that look alike come from different tables or passages of the source. Square brackets hold non-standard residues; d marks the D form. Peptide text beside a SMILES is read from it.

With `CC[C@@H](C)[C@@H](NC(=O)[C@@H](CCCCN)NC(=O)[C@@H](CCCCN)NC(=O)[C@@H](CC(C)C)NC(=O)[C@@H](CCCCN)NC(=O)[C@@H](CCC(=O)O)NC(=O)[C@@H](CCCCN)NC(=O)[C@H](NC(=O)[C@@H](CCCCN)NC(=O)[C@@H](CC(N)=O)NC(=O)[C@@H](CCCNC(=N)N)NC(=O)[C@@H](Cc1ccccc1)NC(=O)[C@@H](CCCCN)NC(=O)[C@@H](CCCNC(=N)N)NC(=O)[C@@H](CC(C)C)NC(=O)[C@@H](CCCNC(=N)N)NC(=O)[C@@H](CCCCN)NC(=O)[C@@H](CCCNC(=N)N)NC(=O)[C@@H](CC(C)C)NC(=O)CN)[C@H](C)CC)C(=O)NCC(=O)N[C@H](CCC(N)=O)C(=O)N[C@H](CCCCN)C(=O)N[C@@H](C(=O)N[C@H](CCC(N)=O)C(=O)NCC(=O)N[C@H](CC(C)C)C(=O)N[C@H](CC(C)C)C(=O)N1CCC[C@@H]1C(=O)N[C@H](CCCCN)C(=O)N[C@H](CC(C)C)C(=O)O)[C@H](C)CC` [D-CAP-18_31, Glrkrlrkfrnkikeklkkigqkiqgllpkl] (H-G[dL][dR][dK][dR][dL][dR][dK][dF][dR][dN][dK][dI][dK][dE][dK][dL][dK][dK][dI]G[dQ][dK][dI][dQ]G[dL][dL][dP][dK][dL]-OH), the results for the IC50 with HeLa cells and in the experiment with A549 cells were 6.16 µM and 12.3 µM, respectively. Moreover, the “A549 IC50” value in the experiment with A549 cells is 45.94 µg/mL. Moreover, the “effect on cell morphology (TEM)” value in experiment [1] is given as “different stages of cellular damage”. Moreover, the “incubation time to 3 log reduction / bactericidal effect” value in experiment [2] (strain ATCC 121110, 4× MIC) was 4 h; in experiment [2] (strain ATCC 121110, 8× MIC), 4 h. Further, the “effect after 24 h incubation” value is reported as “maintained after 24 h” in the experiment with P. aeruginosa R2 (strain R2, 4× MIC) and “maintained after 24 h” in the experiment with P. aeruginosa R2 (strain R2, 8× MIC). For the same molecule, the “incubation time to bactericidal effect (decrease of at least 3 log10 CFU/mL)” value with P. aeruginosa R2 (strain R2, 4× MIC) is listed as 8 h; in the experiment with P. aeruginosa R2 (strain R2, 8× MIC), 4 h. Besides, the MIC (usually the lowest concentration found to suppress growth) in experiment [3] (Strain ATCC 121110) came out at 0.25 µg/mL; in experiment [3] (setting [6]), 0.07 µM; in experiment [5] (Strain 121007) it was 2 µg/mL; in experiment [5] (setting [9]) it was 0.5 µM. Moreover, the MIC50 (usually an inhibitory concentration at the 50% level, which refers to growth in some studies and to a panel of isolates in others) in experiment [4] (setting [7]) came out at 4 µg/mL; in experiment [4] (setting [8]) it was 1.1 µM. Besides, the values for the MIC90 in experiment [4] (setting [7]), in experiment [4] (setting [8]) and in experiment [4] (strain panel) were 16 µg/mL, 4.3 µM and 16 µg/mL, respectively.

For “H-GLRKRLRKFRNKIKEKLKKIGQKIQGLLPKL-OH [CAP-18_31]”, the IC50 (as a rule, the concentration that inhibits the measured activity by half) with HeLa cells stood at 13.1 µM; in the experiment on A549 cells, 1.31 µM. Besides, the “A549 IC50” value in the experiment on A549 cells turned out to be 4.89 µg/mL. Also, the “effect on cell morphology (TEM)” value in experiment [1] is listed as “different stages of cellular damage”. The “effect after 24 h incubation” value was “total eradication of the bacterial growth” in experiment [2] (strain ATCC 121110, 8× MIC); “bacterial regrowth” in the experiment on P. aeruginosa R2 (strain R2, 4× MIC); “maintained the bactericidal effect after 24 h” in the experiment on P. aeruginosa R2 (strain R2, 8× MIC). The “incubation time to bactericidal effect (decrease of at least 3 log10 CFU/mL)” value is reported as 8 h in the experiment on P. aeruginosa R2 (strain R2, 2× MIC); 4 h with P. aeruginosa R2 (strain R2, 4× MIC); 4 h with P. aeruginosa R2 (strain R2, 8× MIC). The MIC in experiment [3] (Strain ATCC 121110) turned out to be 0.5 µg/mL; in experiment [3] (setting [6]), 0.1 µM; in experiment [5] (Strain 121007), 8 µg/mL; in experiment [5] (setting [9]), 2.1 µM. Further, the MIC50 amounted to 2 µg/mL in experiment [4] (setting [7]), 0.5 µM in experiment [4] (setting [8]) and 2 µg/mL in experiment [4] (strain panel). The MIC90 (usually an inhibitory concentration at the 90% level, which refers to growth in some studies and to a panel of isolates in others) is 16 µg/mL in experiment [4] (setting [7]) and 4.3 µM in experiment [4] (setting [8]).

Values taken from article PMC12382740, “In Vitro and In Vivo Characterization of Novel Cathelicidin-Based Peptides with Antimicrobial Activity Against Pseudomonas aeruginosa” (Antibiotics, 2025).
